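96-well plates; 48 h exposure; 5 concentrations. Endpoints by linear interpolation between flanking doses. Not reached: highest tested concentration assigned. GI50 marks 50% less growth. TGI marks complete inhibition of growth.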
Assays:
Experiment in all cases: NCI anticancer screen, dose series, 48 h
CAKI-1 renal = tested on: CAKI-1 renal
HOP-62 NSCLC = tested on: HOP-62 NSCLC
HOP-92 NSCLC = tested on: HOP-92 NSCLC
KM12 colon = tested on: KM12 colon
NCI-H226 lung = tested on: NCI-H226 lung
SN12C renal = tested on: SN12C renal
T-47D breast = tested on: T-47D breast
UO-31 renal = tested on: UO-31 renal
EKVX NSCLC = tested on: EKVX NSCLC

Row | SMILES | GI50 (CAKI-1 renal) [µM] | TGI (CAKI-1 renal) [µM] | GI50 (HOP-62 NSCLC) [µM] | TGI (HOP-62 NSCLC) [µM] | GI50 (HOP-92 NSCLC) [µM] | TGI (HOP-92 NSCLC) [µM] | GI50 (KM12 colon) [µM] | TGI (KM12 colon) [µM] | GI50 (NCI-H226 lung) [µM] | TGI (NCI-H226 lung) [µM] | GI50 (SN12C renal) [µM] | TGI (SN12C renal) [µM] | GI50 (T-47D breast) [µM] | TGI (T-47D breast) [µM] | GI50 (UO-31 renal) [µM] | TGI (UO-31 renal) [µM] | TGI (EKVX NSCLC) [µM]
1 | Nc1nc(N)c2cc(NCc3ccc(Cl)c(Cl)c3)ccc2n1 | 1.37 | 2.71 | 1.63 | 3.01 | 0.348 | 1.75 | 1.29 | 2.59 | 1.53 | 3.14 | 1.5 | 2.89 | 1.72 | 3.28 | 1.35 | 2.89 | 
2 | O=C(O)Cc1ccc2[nH]c(O)c(C3=Nc4ccccc4C3=O)c2c1 |  | > 100 |  | > 100 |  |  |  | > 100 |  | > 100 |  | > 100 |  | > 100 |  | > 100 | > 100
3 | O=[N+]([O-])c1ccc(C=NCC2CCCN3CCCCC23)cc1 (stereo not given) |  | > 100 |  | > 100 |  | > 100 |  | > 100 |  |  |  | > 100 |  | > 100 |  | > 100 | > 100
4 | CC1=Nc2sc3c(c2C2=NCCN12)CCCC3 |  | 50.6 |  | > 100 |  |  |  | > 100 |  | 31.2 |  | 69.6 |  | 88 |  | 50.5 | 94.1
5 | C/C=C/C1OC(O)(C(C)C(O)[C@H](C)C2OC(=O)/C(OC)=C/C(C)=C/[C@@H](C)[C@@H](O)[C@@H](C)C(O)C(C)C/C(C)=C/C=C/C2OC)C[C@@H](OC2CC(O)C(OC(N)=O)C(C)O2)C1C (stereo not given in full) |  | 13.9 |  | < 0.01 |  | < 0.01 |  | 1.33 |  | 6.97 |  | 15 |  |  |  | 13.8 | 8.37
6 | Clc1ccc(C2Nc3ccccc3C3=NCCN32)cc1 (stereo not given) |  | > 100 |  | > 100 |  | 34 |  | 40.2 |  |  |  | > 100 |  | 46.9 |  | > 100 | 93.7
7 | Nc1nn2c(nc(N)c3c(N)[nH]nc32)c1N=Nc1ccc(Br)cc1 |  | > 100 |  | > 93 |  | 28.1 |  | > 75.8 |  | > 100 |  | 56.7 |  |  |  | > 100 | > 100
8 | COc1cc2c(cc1OC)C1(COc3cc(O)c(O)c(O)c3C1=O)C2 (stereo not given) |  | > 50 |  | > 50 |  |  |  | > 50 |  | > 50 |  | > 50 |  | > 50 |  | > 50 | 
9 | COc1c(O)cc2c(c1O)C(=O)/C(=C/c1ccc(O)cc1)CO2 |  | 53.9 |  | 76.3 |  | > 100 |  | 34.4 |  |  |  | 55.5 |  | 94.8 |  | 65.1 | 71.9
10 | O=C1OC(=O)c2cc(S(=O)(=O)c3ccc4c(c3)C(=O)OC4=O)ccc21 |  | > 100 |  | > 100 |  |  |  | > 100 |  | > 100 |  | > 100 |  | > 100 |  | > 100 | > 100
11 | COc1cc2c(=O)cnoc2cc1O |  | > 100 |  |  |  | > 100 |  | > 100 |  | > 100 |  | > 100 |  | > 100 |  | > 100 | > 100

Source: PubChem BioAssay (NCI)
